# Test results taken from patent US11225460B2, “Pyrrolidineamide derivatives and uses thereof” (SUNSHINE LAKE PHARMA CO., LTD., priority 2019, dated 2022).
# Columns and labels:
# [1] = Pharmacokinetic evaluation after intravenous or gavage administration in dogs; type: in vivo, Beagle dogs; settings: for AUC(0-inf) / AUC(0-t) / Cmax / MRT inf / Tmax / clearance / half-life: beagle, dog, plasma
# Description: The LC-MS/MS system comprises Agilent 1200 series vacuum degassing furnace, quaternary pumps, well-plate autosampler, thermostatted column compartment, the API4000Qtrap Triple Quadrupole Mass Spectrometer with an electrospray ionization (ESI) source. Quantitative analysis was carried out using MRM mode. The parameters for MRM transitions are in Table 2.
# Analysis was carried out on waters xbridge C18 (2.1×50 mm, […] column, 0.5 μL of sample), the analytic conditions are mobile phases cosisting of water+2 mM ammonium formate+0.1% formic acid (Phase A) and methanol+2 mM ammonium formate+0.1% formic acid (Phase B). The flow rate was 0.4 mL/min. And the gradient of Mobile phase was in Table 3.
# Each animal species was divided into two groups: one was administered intravenously and the other was administered intragastrically. The compounds disclosed herein were administered in form of a solution containing 5% DMSO+5% Kolliphor HS15+90% Saline. For the group of intravenous administration, the administration dose was 1 mg/kg, and vein blood samples (0.3 ml) were collected at the time points of 0.083, 0.25, 0.5, 1.0, 2.0, 4.0, 6.0, 8.0 and 24 h after drug administration, then plasma solutions were collected by centrifuging each blood sample at 3000 rpm or 4000 rpm for 10 minutes and kept at −20° C. or −70° C. For the group of intragastric administration, the administration dose was 5 mg/kg, and vein blood samples (0.3 mL) were collected at the time points of 0.25, 0.5, 1.0, 2.0, 4.0, 6.0, 8.0 and 24 h after drug administration, then plasma solutions were collected by centrifuging each blood sample at 3000 rpm or 4000 rpm for 10 minutes and kept at −20° C. or −70° C.
# 20 μL of plasma was blended with 120 μl, 50 ng/ml propranolol standard water solution, then the mixture was extracted with 1.0 mL methyl tert-butyl ether (MTBE), 0.7 mL of supernatant was dried by blow with nitrogen and then dissolved again with 220 μL methanol water (methanol/water (v/v)=1/1). LC-MS/MS method was used to detect the concentration of the target compounds, and […] was used to calculate the pharmacokinetic parameters.
# [2] = molecular target: T1, potassium channel of hERG (Homo sapiens, UniProt Q12809); assay: Inhibitory effect on potassium channel of hERG by electrophysiological manual patch clamp; type: cell-based; settings: HEK-293 cells overexpressed potassium channel of hERG, 0.37-30.00 μM, read-out: IC50 acting on hERG potassium channel
# T1 construct: expressed in transfected cells; host or cells: HEK-293 cells
# Description: The cell line was derived from HEK-293 cells overexpressed potassium channel of hERG.
# The cells were cultured in a5% CO2 incubator at 37° C. When the cell density reached 80% of the culture dish, the cells were pre-cleaned with phosphate buffer (PBS), and then digested with trypsin/EDTA for 2-3 minutes. and then the cell culture medium was added to stop digestion. The cells were blew with a pipette gently and transferred to a centrifugal tube. The cells were centrifuged for 3 minutes at 1,000 rpm. The supernatant was poured out. The cell culture medium was added and blew gently to mix the cells well. Then the cells were transferred to a culture dish for subculture, or the cells were dropped onto a circular slide and placed in a culture dish until cell adherence for experiment. […]
# hERG potassium channel current was recorded by using the whole cell recording mode. Firstly, the extracellular fluid (about 2 milliliters per minute) was perfused and recorded continuously, and waiting the current stabilization (Run-Down was less than 5% in 5 minutes). […] Then the extracellular fluid containing the tested compounds was perfused (the concentration of the tested compounds were 0.37 μM, 1.10 μM, 3.30 μM, 10.00 μM and 30.00 μM, respectively) and current value was recorded continuously until the inhibitory effect of the tested compounds on hERG current reached a stable state. […]
# T1 sequence (Q12809 whole entry): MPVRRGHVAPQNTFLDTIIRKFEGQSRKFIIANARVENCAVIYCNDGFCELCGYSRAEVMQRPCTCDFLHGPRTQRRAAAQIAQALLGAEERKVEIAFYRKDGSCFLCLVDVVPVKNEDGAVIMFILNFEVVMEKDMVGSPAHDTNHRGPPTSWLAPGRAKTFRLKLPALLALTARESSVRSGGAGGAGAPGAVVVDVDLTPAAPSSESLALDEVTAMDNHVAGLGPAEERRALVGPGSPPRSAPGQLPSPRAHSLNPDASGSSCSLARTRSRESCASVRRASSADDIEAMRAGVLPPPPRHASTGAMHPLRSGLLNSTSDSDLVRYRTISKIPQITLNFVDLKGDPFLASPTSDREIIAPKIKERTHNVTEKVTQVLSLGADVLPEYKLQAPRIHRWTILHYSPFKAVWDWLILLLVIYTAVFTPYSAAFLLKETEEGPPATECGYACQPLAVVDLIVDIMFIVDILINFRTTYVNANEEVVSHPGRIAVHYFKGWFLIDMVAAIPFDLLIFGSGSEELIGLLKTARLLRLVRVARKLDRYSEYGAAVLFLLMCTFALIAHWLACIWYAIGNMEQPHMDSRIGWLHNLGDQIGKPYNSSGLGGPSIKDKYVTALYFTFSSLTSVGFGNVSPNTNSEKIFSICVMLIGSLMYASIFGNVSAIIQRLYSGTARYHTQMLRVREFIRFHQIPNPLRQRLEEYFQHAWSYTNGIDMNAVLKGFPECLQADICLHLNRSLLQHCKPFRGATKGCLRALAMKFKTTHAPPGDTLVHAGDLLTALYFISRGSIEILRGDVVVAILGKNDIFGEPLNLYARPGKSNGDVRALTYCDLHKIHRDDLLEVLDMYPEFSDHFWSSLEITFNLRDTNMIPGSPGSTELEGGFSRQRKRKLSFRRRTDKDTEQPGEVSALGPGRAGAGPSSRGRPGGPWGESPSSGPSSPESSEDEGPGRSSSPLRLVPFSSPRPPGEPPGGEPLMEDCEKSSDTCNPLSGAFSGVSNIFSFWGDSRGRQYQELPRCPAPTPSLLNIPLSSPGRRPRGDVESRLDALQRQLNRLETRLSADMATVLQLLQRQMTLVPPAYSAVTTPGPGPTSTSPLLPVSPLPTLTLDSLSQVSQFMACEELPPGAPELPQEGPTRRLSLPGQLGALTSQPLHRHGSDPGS
SMILES,"AUC(0-inf) ([1]; iv, i.v group, 1 mg/kg) [ng·h/mL]","AUC(0-t) ([1]; iv, i.v group, 1 mg/kg) [ng·h/mL]","Cmax ([1]; iv, i.v group, 1 mg/kg) [ng/mL]","MRT inf ([1]; iv, i.v group, 1 mg/kg) [h]","Tmax ([1]; iv, i.v group, 1 mg/kg) [h]","clearance ([1]; iv, i.v group, 1 mg/kg) [mL/min/kg]","half-life ([1]; iv, i.v group, 1 mg/kg) [h]","AUC(0-inf) ([1]; po, i.g group, 5 mg/kg) [ng·h/mL]","AUC(0-t) ([1]; po, i.g group, 5 mg/kg) [ng·h/mL]","Cmax ([1]; po, i.g group, 5 mg/kg) [ng/mL]","MRT inf ([1]; po, i.g group, 5 mg/kg) [h]","Tmax ([1]; po, i.g group, 5 mg/kg) [h]","half-life ([1]; po, i.g group, 5 mg/kg) [h]","F ([1]; i.g group, 5 mg/kg) [%]",IC50 [2] [µM]
"NC(=O)[C@@H]1C[C@H](F)CN1Cc1ccc(OCc2cccc(F)c2)cc1 [Example 1, (2S,4S)-4-fluoro-1-(4-(3-fluorobenzyloxy)benzyl)pyrrolidine-2-formamide]",1500,1480,1230,2.77,0.083,11.1,5.05,4990,4930,1730,2.98,0.833,3.27,66.5,> 30
"NC(=O)[C@@H]1C[C@H](F)CN1Cc1ccc(OCc2cccc(F)c2)cc1F [Example 3, (2S,4S)-4-fluoro-1-(2-fluoro-4-(3-fluorobenzyloxy)benzyl)pyrrolidine-2-formamide]",979,977,1490,0.871,0.083,17,1.13,2450,2440,1380,1.44,0.5,1.09,50.1,–
